Test results from patent US10195156B2, “Compounds and compositions for intracellular delivery of agents” (ModernaTX, Inc., priority 2015, dated 2019).

How the values were obtained:
[1] = Encapsulation efficiency of RNA (QUANT-IT RIBOGREEN RNA assay); type: physicochemical
Procedure, shortened: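 Nanoparticle samples diluted to ~5 μg/mL RNA in TE buffer (pH 7.5), incubated with or without 2% Triton X-100 solution at 37 °C for 15 min, then RiboGreen added. Fluorescence read at ~480/520 nm, blank-subtracted; free RNA % = intact over Triton-disrupted signal.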

[2] = tested on: luciferase (Luc) mRNA expression; assay: Expression of Luc induced by sample formulations, whole-body bioluminescence after intravenous administration; type: in vivo; conditions: mice, i.v., 0.5 mg/kg
Procedure, shortened: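 Mice (n=6) dosed intravenously with Luc mRNA nanoparticle formulations at 0.5 mg/kg. Whole-body bioluminescence measured at 3, 6 and 24 h. Standard MC3 formulation and PBS control run alongside.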

[3] = tested on: modified luciferase expression; assay: Expression of Luc in different organs (liver, lung, spleen, femur) 6 hours after intravenous administration; type: in vivo; conditions: i.v., 0.5 mpk
Procedure: The efficacy of the nanoparticle compositions presented in Tables 1, 1a, 17-1, 19-1, 20-1 and 21-1 was further evaluated by measuring the expression of modified luciferase in the liver, lung, spleen, and femur upon administration of a given composition. Formulations were administered intravenously to mice (n=3) at a dosage of 0.5 mpk and bioluminescence measured after 6 hours. The standard MC3 formulation and a PBS control were also tested.

[4] = tested on: IL-6; assay: Cytokine production induced by sample formulations: IL-6; type: in vivo; conditions: mice, i.v., 0.5 mpk, 6 hours; for IL-6: in pg/mL (unit assumed)
Procedure, shortened: (§1)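 Mice received nanoparticle formulations intravenously at 0.5 mpk, with standard MC3 formulation and PBS as controls. Cytokine concentrations were measured 6 hours after dosing.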

[5] = pKa of nanoparticle compositions; type: physicochemical
[6] = Particle size and polydispersity index of nanoparticle compositions (Zetasizer Nano ZS); type: physicochemical
Procedure, shortened: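 Nanoparticle compositions are diluted in 1×PBS, then size and polydispersity index are read on a Zetasizer Nano ZS instrument.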

[7] = tested on: IP-10; assay: Cytokine production induced by sample formulations: IP-10; type: in vivo; conditions: mice, i.v., 0.5 mpk, 6 hours; for IP-10: in pg/mL (unit assumed)
Procedure, shortened: as §1

[8] = Table 20-1, rows without footnote mark
[9] = Table 1, rows without footnote mark
[10] = Table 1, rows without footnote mark (lipid:DOPE:cholesterol:PEG-DMG 40:20:38.5:1.5, Luc mRNA; MC3 standard formulation)
[11] = Table 1, * lipid:DSPC:Chol:PEG-DMG 50:10:38.5:1.5
[12] = comparison amongst compositions

SMILES	EE (%) [1, 8] [%]	Total Flux 3 hours ([2]; Table 20-2)	Total Flux 6 hours ([2]; Table 20-2)	Total Flux 24 hours ([2]; Table 20-2)	Total Flux Femur ([3]; Table 20-3, mice)	Total Flux Liver ([3]; Table 20-3, mice)	Total Flux Lung ([3]; Table 20-3, mice)	Total Flux Spleen ([3]; Table 20-3, mice, spleen)	IL-6 ([4]; Table 20-4, formula (20-I))	pKa [5, 8]	PDI [6, 8]	Size (nm) [6, 8] [nm]	IP-10 ([7]; Table 20-4, formula (20-I))	Total Flux 3 hours ([2]; Table 2)	Total Flux 6 hours ([2]; Table 2)	Total Flux 24 hours ([2]; Table 2)	Total Flux Liver ([3]; Table 3, mice)	Total Flux Lung ([3]; Table 3, mice)	Total Flux Spleen ([3]; Table 3, mice, spleen)	IL-6 ([4]; Table 4)	other results
CCCCCCCCCCCCN(CCO)CCN(CCCCCCCCCCCC)CCCCCC(=O)OCCCCC [Compound 20-2, Pentyl 6-(dodecyl(2-(dodecyl(2-hydroxyethyl)amino)ethyl)amino)hexanoate]	91.6	1.35E+09	2.18E+09	6.49E+07	1.07E+06	6.01E+08	4.52E+06	3.12E+07	118.5	6.60	0.130	71.8	522.9								
CCCCCCCCCCCCN(CCCCCCCCCCCC)CCN(CCCCCCCCCCCC)CCN1CCN(CCN(CCCCCC)CCCCCC)CC1 [Compound 21, N^1-(2-(4-(2-(Dihexylamino)ethyl)piperazin-1-yl)ethyl)-N^1,N^2,N^2-tridodecylethane-1,2-diamine]														1.13E+10	1.08E+10	1.18E+08	1.24E+09	2.51E+06	1.17E+07	48	EE (%) [1, 9]: 98.6%; pKa [5, 9]: 6.29; PDI [6, 9]: 0.239; Size (nm) [6, 10]: 98.3 nm; IP-10 ([7]; Table 4): 652
CCCCCCCCCCCCN(CCCCO)CCN(CCCCCCCCCCCC)CCCCCCCCCCCC [Compound 20-22, 4-((2-(Didodecylamino)ethyl)(dodecyl)amino)butan-1-ol]	95.3	4.00E+09	3.01E+09	2.20E+08		2.88E+08	5.04E+05	1.65E+06	118.6	5.90	0.146	73.8	810.6								
CCCCC/C=C\C/C=C\CCCCCCCCN(CCCCCCCC/C=C\C/C=C\CCCCC)CCN(CCCCCCCC/C=C\C/C=C\CCCCC)CCN1CCNCC1 [Compound 41, N^1,N^1,N^2-Tri((9Z,12Z)-octadeca-9,12-dien-1-yl)-N^2-(2-(piperazin-1-yl)ethyl)ethane-1,2-diamine]														4.06E+07	2.04E+07	6.05E+07	3.00E+06	1.34E+05	2.13E+06	116	EE (%) [1, 11]: 99.9%; encapsulation efficiency, rank within the named table (in words) [1, 12]: highest; pKa [5, 11]: 7.02; Size (nm) ([6]; Table 1, * formulated with lipid:DSPC:Chol:PEG-DMG 50:10:38.5:1.5): 69.0 nm; PDI [6, 11]: 0.239; IP-10 ([7]; Table 4): 350
CCCCC/C=C\CCCCCN(CCO)CCN(CCCCCCCCCCCC)CCCCCCCCCCCC [Compound 20-23, (Z)-2-((2-(Didodecylamino)ethyl)(dodec-6-en-1-yl)amino)ethan-1-ol]	95.3	1.91E+09	1.42E+09	1.13E+08	5.10E+05	3.06E+08	1.28E+06	4.19E+06	236.4	6.56	0.080	88.1	457.8								
CCCCCCCCCCCCN(CCCCCCCCCCCC)CCN1CCN(CCN(CCCCCCCCC)CCN(CCCCCCCCC)CCCCCCCCC)CC1 [Compound 19, N^1-(2-(4-(2-(Didodecylamino)ethyl)piperazin-1-yl)ethyl)-N^1,N^2,N^2-trinonylethane-1,2-diamine]														1.06E+10	6.52E+09	2.65E+09	1.89E+09	2.27E+06	8.28E+06	70	EE (%) [1, 9]: 97.2%; Total Flux Femur ([3]; Table 3, mice): 2.75E+06; pKa [5, 9]: 6.29; PDI [6, 9]: 0.100; Size (nm) [6, 10]: 76.1 nm; IP-10 ([7]; Table 4): 2326
CCCCCCCCCCCCN(CCCCCCCCCCCC)CCN(CCO)CCCCCCCC(=O)OCCCCCCCCC [Compound 20-8, Nonyl 8-((2-(didodecylamino)ethyl)(2-hydroxyethyl)amino)octanoate]	96.6	2.76E+09	4.37E+09	1.30E+08	1.62E+06	8.09E+08	3.45E+06	2.70E+07	18.4	6.43	0.141	67.9	134.0								particle size, rank within the named table (in words) [6, 12]: smallest particles
CCCCCCCCCCCCN(CCCCCCCCCCCC)CCN1CCN(CCN(CCCCCC)CCN(CCCCCC)CCCCCC)CC1 [Compound 17, N^1-(2-(4-(2-(Didodecylamino)ethyl)piperazin-1-yl)ethyl)-N^1,N^2,N^2-trihexylethane-1,2-diamine]														7.55E+09	2.49E+09	7.61E+08	4.26E+08	7.26E+05	3.20E+06	164	EE (%) [1, 9]: 96.6%; Total Flux Femur ([3]; Table 3, mice): 6.71E+05; pKa [5, 9]: 6.67; PDI [6, 9]: 0.180; Size (nm) [6, 10]: 82.3 nm; IP-10 ([7]; Table 4): 545
CCCCC/C=C\C/C=C\CCCCCCCCN(CCCCCCCC/C=C\C/C=C\CCCCC)CCOC [Compound 17-9, (9Z,12Z)—N-(2-Methoxyethyl)-N-((9Z,12Z)-octadeca-9,12-dien-1-yl)octadeca-9,12-dien-1-amine]																					EE (%) ([1]; Table 17-1): 95.0%; Total Flux 3 hours ([2]; Table 17-2): 6.87E+06; Total Flux 6 hours ([2]; Table 17-2): 9.97E+06; Total Flux 24 hours ([2]; Table 17-2): 3.43E+05; Total Flux Femur ([3]; Table 17-3, mice): 2.29E+04; Total Flux Liver ([3]; Table 17-3, mice): 1.39E+06; Total Flux Lung ([3]; Table 17-3, mice): 1.40E+04; Total Flux Spleen ([3]; Table 17-3, mice, spleen): 3.72E+05; IL-6 ([4]; Table 17-4): 35.2; pKa ([5]; Table 17-1): 4.93; PDI ([6]; Table 17-1): 0.138; Size (nm) ([6]; Table 17-1): 87.1 nm; IP-10 ([7]; Table 17-4): 112
CCCCC/C=C\C/C=C\CCCCCCCCN(CCO)CCCCCCCCCCCC [Compound 17-4, 2-(Dodecyl((9Z,12Z)-octadeca-9,12-dien-1-yl)amino)ethan-1-ol]																					EE (%) ([1]; Table 17-1): 94.5%; Total Flux 3 hours ([2]; Table 17-2): 1.22E+09; Total Flux 6 hours ([2]; Table 17-2): 3.60E+08; Total Flux 24 hours ([2]; Table 17-2): 6.05E+07; total flux / Luc expression, rank within the named table (in words) ([2]; each time point): substantially higher flux than compositions including Compounds 17-2, 17-3, and 17-7; Total Flux Liver ([3]; Table 17-3, mice): 8.00E+07; Total Flux Lung ([3]; Table 17-3, mice): 1.95E+05; Total Flux Spleen ([3]; Table 17-3, mice, spleen): 2.30E+06; total flux in the spleen, rank within the named table (in words) ([3]; mice, spleen): highest; IL-6 ([4]; Table 17-4): 80.7; IL-6 induction, rank within the named table (in words) [4]: highest IL-6 and IP-10 levels; pKa ([5]; Table 17-1): 6.34; PDI ([6]; Table 17-1): 0.154; Size (nm) ([6]; Table 17-1): 95.6 nm; IP-10 ([7]; Table 17-4): 560; IP-10 induction, rank or comparison with IL-6 (in words) [7]: highest IL-6 and IP-10 levels
CCCCCCCCCCCCN(CCO)CCN(CCCCCCCC(=O)OCCCCCCCCC)CCCCCCCC(=O)OCCCCCCCCC [Compound 20-10, Dinonyl 8,8′-((2-(dodecyl(2-hydroxyethyl)amino)ethyl)azanediyl)dioctanoate]	91.4	5.05E+09	2.16E+09	2.54E+08	3.09E+06	4.40E+08	5.01E+06	9.67E+07	739.0	6.42	0.130	85.7	2356.8								IL-6 induction, rank within the named table (in words) [4]: highest
